Data set [1] addresses T1, SALDAP (Alpine soil metagenome-derived salicylaldehyde dehydrogenase) (soil metagenome, UniProt Z9QUQ6R3A5).
T1 construct: pLATE51, N-terminal 6xHis tag (no cleavage told), E. coli BL21 (DE3), purified; homodimer about 115 kDa; EC 1.2.1.65
Briefly: X-ray crystal structure, […] Å. It counts as binding. As to conditions: active site, one ligand per monomer; ligand identity chosen by best fit to electron density (putative), no ligand added to the drop is told; pH 4.6.

In data set [2] the target is T1, SALDAP (Alpine soil metagenome-derived salicylaldehyde dehydrogenase). Put plainly: differential scanning fluorimetry (SYPRO Orange). It counts as binding. Conditions: 2 mM ligand, 6 µM enzyme, 50 mM HEPES pH 7.4; no NAD+; untreated enzyme Tm 67.9 ± 0.17 °C. From the text:
differential scanning fluorimetry (SYPRO Orange) on SALDAP (Alpine soil metagenome-derived salicylaldehyde dehydrogenase)
(DSF heats the sample and reads unfolding from a dye or from intrinsic fluorescence.)

Data set [3] concerns the molecule itself. Put plainly: SEC; analytical gel filtration on Sephacryl S-300 (K 9/30 column), 50 mM Tris-HCl, 17 mM Tris base, 150 mM NaCl pH 7.4, calibrated with standard proteins; mass estimated from the elution volume.

For `O=C(O)c1ccc(O)c(O)c1` [protocatechuic acid], the “X-ray crystal structure, 1.9 Å” value in data set [1] is “protocatechuic acid (PCA) was chosen as the ligand bound to the active site”. In data set [2], the “Melting temperature (T m) (°C)” value is 69.2 ± 0.25 °C.

B1: Alpine soil metagenome-derived salicylaldehyde dehydrogenase (SALDAP) (enzyme)
chain: MRGLTVNFERINPMTNQTASTAKAMTAAEARAVADRAAAGFAGWSVLGPNARRAVLMKAAAALEARKDDFVQAMMAEIGATAGWAMFNLMLAASMIREAAALTTQIGGEVIPSDKPGCLALALREPVGVVLGIAPWNAPIILGVRAIAVPLACGNAVILKASEICPRTHGLIIESFAEAGFPEGVVNVVTNAPQDAGEVVGALIDHPAVKRINFTGSTGVGRIIAKRAAEHLKPCLLELGGKAPLVVLDDADLDEAAKAAAFGAFMNQGQICMSTERIIVVEAIAAEFTRRFAAKAQSMATGDPREGKTPLGAVVDRKTVDHVNTLIDDATAKGARIIAGGKGDSVLMSATVVDGVTAAMKLYRDESFGPIVGIIRAKDEADAVRLANDSEYGLAAAVFTRDTARGLRVARQIRSGICHINGPTVHDEAQMPFGGVGASGYGRFGGKAGIDQFTELRWITMETQPGHFPI
notes: salicylaldehyde dehydrogenase SALDAP (EC 1.2.1.65) from an alphaproteobacterium, gene found by gene-targeted assembly in an Alpine soil metagenome; The pLATE51 vector adds the N-terminal 6×His tag; also called 6×His-SALDAP; 6×His SALDAP; not shown: 6×His, N-terminal, kept
For orientation: stoichiometry N means the number of molecules, sites or subunits per partner or assembly. Regarding B1, the “stoichiometry N” value in data set [3] was 2.

Values taken from article PMC8996149 (Acta Crystallographica. Section F, Structural Biology …, 2022).
